Results reported in patent US7659053B2, “Methods of alteration of surface affinities using non-chemical force-creating fields” (President and Fellows of Harvard College, priority 2003, dated 2010).

What follows are compounds tested on BCE cells (assay: Cell motility screening assay: migration of patterned BCE cells out of patterns after voltage pulse). Conditions: drug added before voltage pulse (−1.2 V, 30 s), fumagillin 100 mM, cycloheximide 1 mg/mL, nocodozole 1 mg/mL.
Assay type: cell-based, Bovine
Description: Time-lapse images were acquired on a Leica inverted microscope equipped with a commercially available on-stage incubation chamber that maintained the temperature at 37° C. and the CO2 concentration at 10% at all times. To prevent the evaporation of water, the culture dish was covered with a thin layer of mineral oil (Sigma-Aldrich, St. Louis, Mo.). Phase-contrast images were acquired by a Hamamatsu video camera using METAMORPH® software (Universal Imaging Inc., Downingtown, Pa.). Fluorescent images were acquired through a charge-coupled device from Hamamatsu (ORCA-ER). Quantification of cell shapes for the analysis of the fractional coverage of the surface was performed with an image analysis routine in Metamorph. Briefly, the cells were outlined and the total areas that the cells occupied were calculated. The calculated area was then divided by the total area of the field of view in the micrograph to obtain the normalized fractional coverage by cells. The LIVE/DEAD® assay kit was obtained from Molecular Probes (Eugene, Oreg.).
BCE cells were patterned on a gold-coated substrate coated with C18 and C11EG3 thiols in discrete patterned regions, similar to those shown in FIG. 1 by techniques similar to those described above in Example 1. Additionally, serum-containing media was used in some instances. […]
In the case of `CO[C@@H]1[C@H](OC(=O)/C=C/C=C/C=C/C=C/C(=O)O)CC[C@]2(CO2)[C@H]1[C@@]1(C)O[C@@H]1CC=C(C)C` [Fumagillin, fumagillin], the “effect on cell migration out of the patterns” value is reported as “reduce the rates of cell migration”. With `C[C@@H]1C[C@@H]([C@H](O)CC2CC(=O)NC(=O)C2)C(=O)[C@@H](C)C1` [cycloheximide] the “effect on cell migration out of the patterns” value was “reduce the rates of cell migration”.

Each compound was assayed on NIH 3T3 fibroblast cells (assay: Culture of NIH 3T3 fibroblasts on micropatterned SAMs on gold and palladium). Conditions: NIH 3T3 cells.
Assay type: cell-based
Description: To test the ability of SAMs on palladium to support the adhesion and growth of cells in micropatterns, certain features on the substrates were defined using microcontact printing, using techniques similar to those described above. A poly(dimethylsiloxane) (PDMS) stamp that carried microfeatures was inked with 2 mM octadecanethiol (C18) in ethanol, dried under a stream of nitrogen, then brought it into contact with the palladium films for 2 to 10 seconds. Next, the palladium film was immersed in ethanolic solutions containing 2 mM of thiols A, B, or C for up to 50 hours.
NIH 3T3 fibroblast cells were then cultured on these micropatterned substrates. […] In contrast, OEG-terminated SAMs on the same substrate prevented the adhesion of cells during the same times.
In the case of `OCCOCCOCCOCCOCCOCCOCCOCCCS` [Compound 2, HS(CH2)3(OCH2CH2)7OH], the “adhesion of cells on SAM region” value is reported as “prevented the attachment of cells”. With `OCCOCCOCCOCCCCCCCCCCCS` [Compound C11EG3, HS—(CH2)11—(O—CH2—CH2)3—OH] the “adhesion of cells on SAM region” value was “prevented the attachment of cells”. With `CCCCCCCCCCCCCCCCCCS` [Compound C18, HS—(CH2)17—CH3] the “adhesion of cells on SAM region” value was “supported the adhesion of cells”. For `OCCOCCOCCOCCOCCOCCOCCCCCCCCCCCS` [thiol B, HS(CH2)11(OCH2CH2)6OH], the “adhesion of cells on SAM region” value was “prevented the attachment of cells”.
